Source: patent US10875876B2, “Cyclized sulfamoylarylamide derivatives and the use thereof as medicaments for the treatment of hepatitis B” (priority 2015, dated 2020)
Where two headings read alike, the source gives them in different places.

Columns and labels:
[1] = from C=CCCCCC(C)NS(=O)(=O)c1cn(C)c(C(=O)OC)c1CC=C; rcm bond; Grubbs catalyst 2nd generation; DCE; 3.4 mM; 80.0 °C; 2.0 h
HBV = experiment: anti HBV activity, HepG2.117 cell line, intracellular HBV DNA by realtime PCR; assay type: cell-based; conditions: HepG2.117 cell line (Tet-off), 3 days of treatment, intracellular HBV DNA quantified by realtime PCR, read-out: HBV-AVE-HepG2.117 EC50
Method in brief: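 Readout was intracellular HBV DNA by real-time PCR (HBV-specific primers and probe) after 3 days of compound exposure. Serial dilutions were tested in duplicate on HepG2.117 cells, a stable inducible HBV producer in which replication is switched on when doxycycline is absent.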

HepG2 cells [2] = tested on: HepG2 cells
HepG2 cells [3] = experiment: Cytotoxicity in HepG2 cells, Resazurin assay; conditions: read-out: TOX-HepG2-4 d CC50; HepG2 cells incubated for 4 days, viability by Resazurin assay

SMILES	ring closure, yield of all isomers [1] [%]	EC50 (HBV) [nM]	CC50 (HepG2 cells [2]) [nM]	CC50 (HepG2 cells [3]) [nM]	EC50 (HBV; Hepatitis B virus, HepG2.117, 72 h) [nM]
COC(=O)c1c2c(cn1C)S(=O)(=O)NC(C)CCCC/C=C\C2 (stereo not shown)	61.1				
C[C@@H](N1CCCCc2c(cn(C)c2C(=O)Nc2ccc(F)c(F)c2)S1(=O)=O)C(F)(F)F [Compound 4, N-(3,4-difluorophenyl)-8-methyl-1,1-dioxo-2-[(1R)-2,2,2-trifluoro-1-methyl-ethyl]-3,4,5,6-tetrahydropyrrolo[3,4-g]thiazocine-7-carboxamide]		1090	> 25000		
CC(NCC(F)(F)F)C1CCc2c(cn(C)c2C(=O)Nc2cc(F)c(F)c(F)c2)S(=O)(=O)N1 (single isomer, unassigned) [Compound 218b, 7-methyl-1,1-dioxo-3-[1-(2,2,2-trifluoroethylamino)ethyl]-N-(3,4,5-trifluorophenyl)-2,3,4,5-tetrahydropyrrolo[3,4-f]thiazepine-6-carboxamide]		79		> 25000	
Cn1cc2c(c1C(=O)Nc1ccc(F)c(F)c1)OCC(C)(CO)NS2(=O)=O (single isomer, unassigned) [Compound 203b, N-(3,4-difluorophenyl)-3-(hydroxymethyl)-3,7-dimethyl-1,1-dioxo-2,4-dihydropyrrolo[3,4-b][1,4,5]oxathiazepine-6-carboxamide]		59		> 25000	
Cn1cc2c(c1C(=O)Nc1ccc(F)c(C#N)c1)OC[C@H](C(O)C1CC1)NS2(=O)=O (stereo partly drawn) [Compound 120b, (3R)—N-(3-cyano-4-fluoro-phenyl)-3-[cyclopropyl(hydroxy)methyl]-7-methyl-1,1-dioxo-3,4-dihydro-2H-pyrrolo[3,4-b][1,4,5]oxathiazepine-6-carboxamide]		11		> 25000	
Cc1cc(CC2(C)COc3c(cn(C)c3C(=O)Nc3ccnc(Cl)c3)S(=O)(=O)N2)no1 (single isomer, unassigned) [Compound 213b, N-(2-chloro-4-pyridyl)-3,7-dimethyl-3-[(5-methylisoxazol-3-yl)methyl]-1,1-dioxo-2,4-dihydropyrrolo[3,4-b][1,4,5]oxathiazepine-6-carboxamide]		16		> 25000	
Cc1cccc(C2(C)COc3c(cn(C)c3C(=O)Nc3ccc(F)c(F)c3)S(=O)(=O)N2)n1 (single isomer, unassigned) [Compound 168b, N-(3,4-difluorophenyl)-3,7-dimethyl-3-(6-methyl-2-pyridyl)-1,1-dioxo-2,4-dihydropyrrolo[3,4-b][1,4,5]oxathiazepine-6-carboxamide]		15		> 25000	
Cc1cc(CC2(C)COc3c(cn(C)c3C(=O)Nc3ccnc(C(F)F)c3)S(=O)(=O)N2)no1 (single isomer, unassigned) [Compound 209b, N-[2-(difluoromethyl)-4-pyridyl]-3,7-dimethyl-3-[(5-methylisoxazol-3-yl)methyl]-1,1-dioxo-2,4-dihydropyrrolo[3,4-b][1,4,5]oxathiazepine-6-carboxamide]		18		> 25000	
Cc1cc(CC2(C)COc3c(cn(C)c3C(=O)Nc3ccc(F)c(C#N)c3)S(=O)(=O)N2)no1 (single isomer, unassigned) [Compound 220b, N-(3-cyano-4-fluoro-phenyl)-3,7-dimethyl-3-[(5-methylisoxazol-3-yl)methyl]-1,1-dioxo-2,4-dihydropyrrolo[3,4-b][1,4,5]oxathiazepine-6-carboxamide]		34		> 25000	
CC1CCn2c(C(=O)Nc3ccc(F)c(F)c3)nc(Br)c2S(=O)(=O)N1 (stereo not shown) [compound 245]		> 25000		> 25000	
Cn1cc2c(c1C(=O)Nc1cc(F)c(F)c(F)c1)CCC(C(C)(C)O)NS2(=O)=O (single isomer, unassigned) [Compound 149b, 3-(1-hydroxy-1-methyl-ethyl)-7-methyl-1,1-dioxo-N-(3,4,5-trifluorophenyl)-2,3,4,5-tetrahydropyrrolo[3,4-f]thiazepine-6-carboxamide]		10		> 25000	
CCC(O)[C@@H]1COc2c(cn(C)c2C(=O)Nc2ccc(F)c(C(F)F)c2)S(=O)(=O)N1 (single isomer, unassigned) [Compound 144b, N-[3-(difluoromethyl)-4-fluoro-phenyl]-3-(1-hydroxypropyl)-7-methyl-1,1-dioxo-3,4-dihydro-2H-pyrrolo[3,4-b][1,4,5]oxathiazepine-6-carboxamide]		63		> 25000	
Cc1cc(CC2(C)COc3c(cn(C)c3C(=O)Nc3cc(F)c(F)c(F)c3)S(=O)(=O)N2)no1 (single isomer, unassigned) [Compound 170b, 3,7-dimethyl-3-[(5-methylisoxazol-3-yl)methyl]-1,1-dioxo-N-(3,4,5-trifluorophenyl)-2,4-dihydropyrrolo[3,4-b][1,4,5]oxathiazepine-6-carboxamide]				> 25000	7
Cc1cccc(CC2(C)COc3c(cn(C)c3C(=O)Nc3ccc(F)c(F)c3)S(=O)(=O)N2)n1 (single isomer, unassigned) [Compound 172b, N-(3,4-difluorophenyl)-3,7-dimethyl-3-[(6-methyl-2-pyridyl)methyl]-1,1-dioxo-2,4-dihydropyrrolo[3,4-b][1,4,5]oxathiazepine-6-carboxamide]		64		> 25000	
CC1COc2c(cn(C)c2C(=O)Nc2ccc(F)c(F)c2)S(=O)(=O)N1 (single isomer, unassigned) [Compound 14b, N-(3,4-difluorophenyl)-3,7-dimethyl-1,1-dioxo-3,4-dihydro-2H-pyrrolo-[3,4-b][1,4,5]oxathiazepine-6-carboxamide]		78		> 25000	
Cc1cc(CC2(C)COc3c(cn(C)c3C(=O)Nc3ccc(F)c(F)c3)S(=O)(=O)N2)no1 (single isomer, unassigned) [Compound 162b, N-(3,4-difluorophenyl)-3,7-dimethyl-3-[(5-methylisoxazol-3-yl)methyl]-1,1-dioxo-2,4-dihydropyrrolo[3,4-b][1,4,5]oxathiazepine-6-carboxamide]		11		> 25000	
